Source: the supplement of paper PMC5752671
Where a name gives a salt, the structure may show the parent alone.

Assays:
EOL-1 = test: IC50 (cell viability) (log10 M); conditions: 4 days
How it was run: (§1)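 Fourteen leukemia cell lines were plated on extracellular-matrix-coated 384-well plates. Drugs were added robotically the next day at eight concentrations spanning 4–5 logs within 10^–12–10^–4 M, tailored per drug, in duplicate. Viability was read with CellTiter-Glo after 4 days. IC50 is the concentration where a fitted four-parameter curve crosses 50% viability, in log10 M; where that is not reached, the highest tested concentration is entered.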

HL60 = test: IC50 (cell viability) (log10 M); conditions: 4 days
How it was run: as §1

KASUMI1 = test: IC50 (cell viability) (log10 M); conditions: 4 days
How it was run: as §1

KG1 = test: IC50 (cell viability) (log10 M); conditions: 4 days
How it was run: as §1

MOLM/13 = test: IC50 (cell viability) (log10 M); conditions: 4 days
How it was run: as §1

MOLM/16 = test: IC50 (cell viability) (log10 M); conditions: 4 days
How it was run: as §1

MV4.11 = test: IC50 (cell viability) (log10 M); conditions: 4 days
How it was run: as §1

NB4 = test: IC50 (cell viability) (log10 M); conditions: 4 days
How it was run: as §1

OCI-AML2 = test: IC50 (cell viability) (log10 M); conditions: 4 days
How it was run: as §1

OCI-AML3 = test: IC50 (cell viability) (log10 M); conditions: 4 days
How it was run: as §1

PL-21 = test: IC50 (cell viability) (log10 M); conditions: 4 days
How it was run: as §1

SKM1 = test: IC50 (cell viability) (log10 M); conditions: 4 days
How it was run: as §1

THP-1 = test: IC50 (cell viability) (log10 M); conditions: 4 days
How it was run: as §1

U937 = test: IC50 (cell viability) (log10 M); conditions: 4 days
How it was run: as §1

AML190 = primary AML patient cells; test: area under dose-response curve (cell viability), refractory AML patient cells (AUC (arbitrary, % viability x log concentration)); higher = less sensitive (more viable); conditions: 4 days; sample type: primary refractory AML patient cells
How it was run: (§2)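 Each value is the area under the fitted dose-response curve. Primary cells from 12 refractory AML patients on a clinical trial went through the same high-throughput screen in extracellular-matrix-coated 384-well plates, with drugs at eight concentrations within 10^–12–10^–4 M in duplicate. Viability was measured with CellTiter-Glo after 4 days.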

AML223 = primary AML patient cells; test: as above; conditions: 4 days; sample type: primary refractory AML patient cells
How it was run: as §2

AML.061 = primary AML patient cells; test: area under dose-response curve (cell viability), primary AML patient cells (AUC (arbitrary, % viability x log concentration; ComBat batch-corrected)); higher = less sensitive (more viable); conditions: 4 days; sample type: primary AML patient cells
How it was run: (§3)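 Drug response was scored as area under the fitted curve, with ComBat used to remove batch effects. The curves were four-parameter fits to CellTiter-Glo viability readings taken 4 days after drugs were added, in duplicate, at eight concentrations within 10^–12–10^–4 M. The cells were blast-enriched primary AML samples, thawed with DNase, precultured 48 h in IMDM with horse serum, fetal calf serum and low stem cell factor, and seeded at 5000 cells/well on extracellular-matrix-coated 384-well plates.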

AML.074 = primary AML patient cells; test: as above; conditions: 4 days; sample type: primary AML patient cells
How it was run: as §3

AML.077 = primary AML patient cells; test: as above; conditions: 4 days; sample type: primary AML patient cells
How it was run: as §3

AML010 = primary AML patient cells; test: as above; conditions: 4 days; sample type: primary AML patient cells
How it was run: as §3

Row | Compound | IC50 (log10 M) (EOL-1) | IC50 (log10 M) (HL60) | IC50 (log10 M) (KASUMI1) | IC50 (log10 M) (KG1) | IC50 (log10 M) (MOLM/13) | IC50 (log10 M) (MOLM/16) | IC50 (log10 M) (MV4.11) | IC50 (log10 M) (NB4) | IC50 (log10 M) (OCI-AML2) | IC50 (log10 M) (OCI-AML3) | IC50 (log10 M) (PL-21) | IC50 (log10 M) (SKM1) | IC50 (log10 M) (THP-1) | IC50 (log10 M) (U937) | area under dose-response curve (AML190) | area under dose-response curve (AML223) | area under dose-response curve (AML.061) | area under dose-response curve (AML.074) | area under dose-response curve (AML.077) | area under dose-response curve (AML010)
1 | CC[C@H](Nc1ncnc2[nH]cnc12)c1nc2cccc(F)c2c(=O)n1-c1ccccc1 [CAL-101] | -5.16 | > -5 | -5.08 | > -5 | > -5 | -5.22 | -5.3 | > -5 | > -5 | > -5 | > -5 | > -5 | > -5 | > -5 | 649 | 568 | 526 | 620 | 577 | 698
2 | Nc1nc(Cl)nc2c1ncn2[C@H]1C[C@H](O)[C@@H](CO)O1 [Cladribine] | < -8.48 | -7.09 | -6.94 | -6.79 | -7.74 | -7.36 | < -8.48 | -7.52 | < -8.48 | -8.35 | -8.25 | -6.97 | -6.82 | -8.47 | 339 | 572 | 441 | ≤ 226 | 446 | ≥ 688
3 | Nc1nc(Cl)nc2c1ncn2[C@@H]1O[C@H](CO)[C@@H](O)[C@@H]1F [Clofarabine] | -7.52 | -6.93 | -6.93 | -6.93 | -6.86 | -6.78 | -6.57 | -6.74 | -7.05 | -7.09 | -7.51 | -6.7 | -6.56 | -7.66 | 415 | 511 | 505 | 416 | 525 | ≥ 718
4 | C[C@@H](Oc1cc(-c2cnn(C3CCNCC3)c2)cnc1N)c1c(Cl)ccc(F)c1Cl [Crizotinib] | -5.82 | -5.49 | -5.64 | -5.49 | -5.75 | -5.86 | -5.68 | -5.61 | -5.5 | -5.41 | -5.59 | -5.49 | -5.41 | -5.61 | 557 | 556 | ≤ 570 | 643 | 630 | 726
5 | Nc1ccn([C@@H]2O[C@H](CO)[C@@H](O)[C@@H]2O)c(=O)n1 [Cytarabine HCl] | < -7.34 | -7.08 | < -7.34 | -7.29 | < -7.34 | -7.19 | -7.21 | < -7.34 | < -7.34 | -6.73 | < -7.34 | -6.81 | -6.53 | < -7.34 | 482 | 612 | 715 | ≤ 461 | 585 | 770
6 | Cc1nc(Nc2ncc(C(=O)Nc3c(C)cccc3Cl)s2)cc(N2CCN(CCO)CC2)n1 [Dasatinib] | -7.46 | > -5 | > -5 | -5.39 | -5.55 | -5.46 | -5.37 | > -5 | -5.37 | > -5 | -5.46 | > -5 | > -5 | > -5 | 288 | 618 | 440 | 506 | 448 | 658
7 | COc1cccc2c1C(=O)c1c(O)c3c(c(O)c1C2=O)C[C@@](O)(C(C)=O)C[C@@H]3O[C@H]1C[C@H](N)[C@H](O)[C@H](C)O1 [Daunorubicin HCl] | -8.26 | -7.03 | -6.96 | -6.76 | -7.09 | -6.96 | -8.28 | -7.23 | -7.03 | -6.98 | -6.92 | -7.2 | -7 | -7 | 398 | 431 | 363 | 315 | 489 | 558
8 | Nc1ncn([C@H]2C[C@H](O)[C@@H](CO)O2)c(=O)n1 [Decitabine] | < -8.34 | -5.1 | -5.3 | -6.39 | < -8.34 | < -8.34 | -5.06 | -8.3 | -7.26 | -6.05 | -6.43 | -5.53 | -5.82 | -6.97 | 623 | 684 | 775 | ≤ 599 | 655 | 771
9 | CO[C@H]1C[C@@H]2CC[C@@H](C)[C@@](O)(O2)C(=O)C(=O)N2CCCC[C@H]2C(=O)O[C@H]([C@H](C)C[C@@H]2CC[C@@H](OCCO)[C@H](OC)C2)CC(=O)[C@H](C)/C=C(\C)[C@@H](O)[C@@H](OC)C(=O)[C@H](C)C[C@H](C)/C=C/C=C/C=C/1C [Everolimus] | -8.2 | > -5 | > -5 | > -5 | -5.39 | -5.83 | -6 | > -5 | -5.02 | > -5 | -5.1 | -5.4 | > -5 | -7.7 | 485 | 549 | 385 | 594 | 353 | 614
10 | Nc1nc(F)nc2c1ncn2[C@@H]1O[C@H](CO)[C@@H](O)[C@@H]1O [Fludarabine] | -5.77 | -5.2 | -5.19 | -5.01 | -5.23 | -5.46 | -5.34 | > -5 | -5.56 | -5.41 | -5.62 | -5.13 | > -5 | -5.74 | 518 | 573 | 609 | 539 | 618 | 663
11 | CS(=O)(=O)c1ccc(C(=O)Nc2ccc(Cl)c(-c3ccccn3)c2)c(Cl)c1 [GDC-0449] | > -5 | > -5 | > -5 | > -5 | > -5 | > -5 | > -5 | > -5 | > -5 | > -5 | > -5 | > -5 | > -5 | > -5 | 628 | 614 | 830 | 744 | 746 | 792
12 | COc1cc2ncnc(Nc3ccc(F)c(Cl)c3)c2cc1OCCCN1CCOCC1 [Gefitinib] | -5.5 | > -5 | > -5 | -5.01 | -5.18 | -5.47 | -5.48 | > -5 | > -5 | > -5 | -5.34 | > -5 | > -5 | > -5 | 642 | 612 | 823 | 669 | ≤ 640 | 777
13 | Nc1ccn([C@@H]2O[C@H](CO)[C@@H](O)C2(F)F)c(=O)n1 [Gemcitabine HCl] | < -8.48 | < -8.48 | < -8.48 | < -8.48 | < -8.48 | < -8.48 | < -8.48 | < -8.48 | < -8.48 | < -8.48 | < -8.48 | < -8.48 | < -8.48 | < -8.48 | 519 | 450 | 636 | ≤ 315 | 383 | 611
14 | NC(=O)NO [Hydroxyurea] | > -5 | > -5 | > -5 | > -5 | > -5 | > -5 | > -5 | > -5 | > -5 | > -5 | > -5 | > -5 | > -5 | > -5 | 675 | 624 | ≥ 804 | 726 | 658 | 725
15 | CS(=O)(=O)CCNCc1ccc(-c2ccc3ncnc(Nc4ccc(OCc5cccc(F)c5)c(Cl)c4)c3c2)o1 [Lapatinib] | -5.04 | -5.05 | -5.15 | -5.01 | -5.41 | -5.45 | -5.4 | -5.37 | -5.37 | -5.42 | -5.4 | -5.07 | -5.01 | -5.45 | 692 | 659 | 814 | 673 | ≤ 655 | 787
16 | Nc1cccc2c1CN(C1CCC(=O)NC1=O)C2=O (stereo not given) [Lenalidomide] | > -5 | > -5 | > -5 | > -5 | > -5 | > -5 | > -5 | > -5 | > -5 | > -5 | > -5 | > -5 | > -5 | > -5 | 659 | 617 | 834 | ≤ 614 | 707 | 765
17 | COc1cc(Nc2ncc3c(n2)-c2ccc(Cl)cc2C(c2c(F)cccc2OC)=NC3)ccc1C(=O)O [MLN8237] | < -8.48 | > -5 | -7.53 | -7.99 | -7.95 | < -8.48 | -7.92 | -8.21 | -7.51 | -7.95 | -7.95 | > -5 | < -8.48 | < -8.48 | 576 | 640 | 744 | ≤ 506 | 611 | 716
18 | Nc1ccccc1NC(=O)c1ccc(CNC(=O)OCc2cccnc2)cc1 [MS-275] | -7.34 | -6.6 | -6.78 | -6.27 | -6.82 | -7.03 | -6.86 | -6.85 | -6.78 | -6.64 | -6.61 | -6.84 | -6.13 | -6.6 | 461 | 429 | 485 | 487 | 479 | 484
19 | Cc1ccc(NC(=O)c2ccc(CN3CCN(C)CC3)cc2)cc1Nc1nc(-c2cccnc2)cs1 [Masitinib] | -7.33 | > -5 | -5.32 | > -5 | -5.11 | -5.22 | -5.28 | > -5 | > -5 | -5.01 | -5.36 | > -5 | > -5 | -5.07 | 594 | 644 | 593 | 613 | 595 | 702
